Key:
Type in all cases: functional, cell-based
P30-OHK = assay: cells; conditions: Homo sapiens;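 note: growth inhibition of the P30-OHK cell line, read out with a cell viability assay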
Description: SANGER: Inhibition of human P30-OHK cell growth in a cell viability assay.

TE-8 = assay: cells; conditions: Homo sapiens;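 note: growth inhibition of TE-8 cells, measured with a cell viability readout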
Description: SANGER: Inhibition of human TE-8 cell growth in a cell viability assay.

D-566MG = assay: cells; conditions: Homo sapiens
OS-RC-2 = assay: cells; conditions: Homo sapiens;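 note: growth inhibition of human OS-RC-2 cells, measured by a cell viability assay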
Description: SANGER: Inhibition of human OS-RC-2 cell growth in a cell viability assay.

PSN1 = assay: cells; conditions: Homo sapiens;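 note: suppression of growth of human PSN1 cells, read out by a cell viability assay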
Description: SANGER: Inhibition of human PSN1 cell growth in a cell viability assay.

SK-MEL-2 = assay: cells; conditions: Homo sapiens;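 note: growth inhibition of human SK-MEL-2 cells measured with a cell viability assay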
Description: SANGER: Inhibition of human SK-MEL-2 cell growth in a cell viability assay.

UACC-893 = assay: cells; conditions: Homo sapiens
Description: SANGER: Inhibition of human UACC-893 cell growth in a cell viability assay.

SBC-1 = assay: cells; conditions: Homo sapiens;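 note: cell viability assay measuring growth inhibition of the SBC-1 cell line, IC50 being the concentration that halves growth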
Description: SANGER: Inhibition of human SBC-1 cell growth in a cell viability assay.

LU-139 = assay: cells; conditions: Homo sapiens
Description: SANGER: Inhibition of human LU-139 cell growth in a cell viability assay.

GI-1 = assay: cells; conditions: Homo sapiens;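 note: growth inhibition of human GI-1 cells, measured with a cell viability readout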
Description: SANGER: Inhibition of human GI-1 cell growth in a cell viability assay.

SK-N-FI = assay: cells; conditions: Homo sapiens;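 note: cell viability assay measuring growth inhibition of human SK-N-FI cells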
Description: SANGER: Inhibition of human SK-N-FI cell growth in a cell viability assay.

NCI-H1693 = assay: cells; conditions: Homo sapiens;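 note: growth inhibition of the human cell line, read out with a cell viability assay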
Description: SANGER: Inhibition of human NCI-H1693 cell growth in a cell viability assay.

SW948 = assay: cells; conditions: Homo sapiens;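 note: growth inhibition of SW948 cells, read out with a cell viability assay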
Description: SANGER: Inhibition of human SW948 cell growth in a cell viability assay.

SW780 = assay: cells; conditions: Homo sapiens;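 note: growth inhibition of the cells, read out with a cell viability assay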
Description: SANGER: Inhibition of human SW780 cell growth in a cell viability assay.

MN-60 = assay: cells; conditions: Homo sapiens;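 note: growth inhibition of the MN-60 cell line, determined with a cell viability assay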
Description: SANGER: Inhibition of human MN-60 cell growth in a cell viability assay.

COLO-824 = assay: cells; conditions: Homo sapiens
Description: SANGER: Inhibition of human COLO-824 cell growth in a cell viability assay.

ES7 = assay: cells; conditions: Homo sapiens;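 note: growth inhibition of cultured human ES7 cells, read out as cell viability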
Description: SANGER: Inhibition of human ES7 cell growth in a cell viability assay.

NOMO-1 = assay: cells; conditions: Homo sapiens;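 note: growth inhibition of human NOMO-1 cells measured by a cell viability assay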
Description: SANGER: Inhibition of human NOMO-1 cell growth in a cell viability assay.

5637 = assay: cells; conditions: Homo sapiens
Description: SANGER: Inhibition of human 5637 cell growth in a cell viability assay.

OC-314 = assay: cells; conditions: Homo sapiens
Description: SANGER: Inhibition of human OC-314 cell growth in a cell viability assay.

HT55 = assay: cells; conditions: Homo sapiens;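 note: cell viability readout measuring growth inhibition of human HT55 cells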
Description: SANGER: Inhibition of human HT55 cell growth in a cell viability assay.

DSH1 = assay: cells; conditions: Homo sapiens;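 note: growth inhibition of human DSH1 cells, measured with a cell viability readout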
Description: SANGER: Inhibition of human DSH1 cell growth in a cell viability assay.

CaR-1 = assay: cells; conditions: Homo sapiens;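 note: growth inhibition of human CaR-1 cancer cells, read out with a cell viability assay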
Description: SANGER: Inhibition of human CaR-1 cell growth in a cell viability assay.

SNU-449 = assay: cells; conditions: Homo sapiens
Description: SANGER: Inhibition of human SNU-449 cell growth in a cell viability assay.

LCLC-103H cell line = assay: cells; conditions: Homo sapiens
Description: SANGER: Inhibition of human LCLC-103H cell growth in a cell viability assay.

HCC1569 = assay: cells; conditions: Homo sapiens;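 note: growth inhibition of human HCC1569 cells, read out with a cell viability assay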
Description: SANGER: Inhibition of human HCC1569 cell growth in a cell viability assay.

CAL-51 = assay: cells; conditions: Homo sapiens;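 note: human CAL-51 cell line, growth inhibition read out via a cell viability assay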
Description: SANGER: Inhibition of human CAL-51 cell growth in a cell viability assay.

A3-KAW = assay: cells; conditions: Homo sapiens;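 note: growth inhibition of human A3-KAW cells, read out with a cell viability assay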
Description: SANGER: Inhibition of human A3-KAW cell growth in a cell viability assay.

OVCAR-8 = assay: cells; conditions: Homo sapiens;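 note: growth inhibition of human OVCAR-8 cells, read out by a cell viability assay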
Description: SANGER: Inhibition of human OVCAR-8 cell growth in a cell viability assay.

HTC-C3 = assay: cells; conditions: Homo sapiens;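 note: inhibition of cell growth, read out with a cell viability assay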
Description: SANGER: Inhibition of human HTC-C3 cell growth in a cell viability assay.

TE-6 = assay: cells; conditions: Homo sapiens;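 note: growth inhibition of TE-6 cells, read out with a cell viability assay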
Description: SANGER: Inhibition of human TE-6 cell growth in a cell viability assay.

GCT = assay: cells; conditions: Homo sapiens;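 note: GCT cell line proliferation inhibition, read out with a cell viability assay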
Description: SANGER: Inhibition of human GCT cell growth in a cell viability assay.

DMS-273 = assay: cells; conditions: Homo sapiens
Description: SANGER: Inhibition of human DMS-273 cell growth in a cell viability assay.

Huh-7 = assay: cells; conditions: Homo sapiens;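 note: HuH-7 cell growth inhibition, read out with a cell viability assay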
Description: SANGER: Inhibition of human HuH-7 cell growth in a cell viability assay.

HSC-2 = assay: cells; conditions: Homo sapiens;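 note: growth inhibition of human HSC-2 cells, read out by a cell viability assay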
Description: SANGER: Inhibition of human HSC-2 cell growth in a cell viability assay.

EW-18 = assay: cells; conditions: Homo sapiens;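 note: growth inhibition of EW-18 cells, read out by a cell viability assay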
Description: SANGER: Inhibition of human EW-18 cell growth in a cell viability assay.

C8166 = assay: cells; conditions: Homo sapiens;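 note: growth inhibition of human C8166 cells measured by a cell viability assay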
Description: SANGER: Inhibition of human C8166 cell growth in a cell viability assay.

NY = assay: cells; conditions: Homo sapiens
Description: SANGER: Inhibition of human NY cell growth in a cell viability assay.

8305C = assay: cells; conditions: Homo sapiens
Description: SANGER: Inhibition of human 8305C cell growth in a cell viability assay.

NCI-H23 = assay: cells; conditions: Homo sapiens;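 note: cell viability assay measuring growth inhibition of NCI-H23 cells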
Description: SANGER: Inhibition of human NCI-H23 cell growth in a cell viability assay.

A673 = assay: cells; conditions: Homo sapiens;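 note: growth inhibition of human A673 cells, read out through a cell viability assay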
Description: SANGER: Inhibition of human A673 cell growth in a cell viability assay.

HN = assay: cells; conditions: Homo sapiens
Description: SANGER: Inhibition of human HN cell growth in a cell viability assay.

COR-L88 = assay: cells; conditions: Homo sapiens;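 note: growth inhibition of COR-L88 cells, read out with a cell viability assay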
Description: SANGER: Inhibition of human COR-L88 cell growth in a cell viability assay.

IA-LM = assay: cells; conditions: Homo sapiens;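 note: cell viability assay measuring growth inhibition of human IA-LM cells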
Description: SANGER: Inhibition of human IA-LM cell growth in a cell viability assay.

NCI-H292 = assay: cells; conditions: Homo sapiens;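 note: growth inhibition of NCI-H292 cells, read out with a cell viability assay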
Description: SANGER: Inhibition of human NCI-H292 cell growth in a cell viability assay.

SK-LU-1 = assay: cells; conditions: Homo sapiens;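 note: cell viability assay measuring growth inhibition of human SK-LU-1 cells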
Description: SANGER: Inhibition of human SK-LU-1 cell growth in a cell viability assay.

SK-N-AS = assay: cells; conditions: Homo sapiens;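 note: growth inhibition of human SK-N-AS cells, measured with a cell viability assay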
Description: SANGER: Inhibition of human SK-N-AS cell growth in a cell viability assay.

HEL = assay: cells; conditions: Homo sapiens;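 note: growth inhibition of HEL cells, read out with a cell viability assay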
Description: SANGER: Inhibition of human HEL cell growth in a cell viability assay.

OCUB-M = assay: cells; conditions: Homo sapiens;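 note: growth inhibition of the cancer cell line, read out through a cell viability assay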
Description: SANGER: Inhibition of human OCUB-M cell growth in a cell viability assay.

BB49-HNC = assay: cells; conditions: Homo sapiens;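 note: cell viability assay read-out, reported as inhibition of BB49-HNC cell growth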
Description: SANGER: Inhibition of human BB49-HNC cell growth in a cell viability assay.

RS4-11 = assay: cells; conditions: Homo sapiens;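 note: growth inhibition of RS4-11 cells, read out by a cell viability assay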
Description: SANGER: Inhibition of human RS4-11 cell growth in a cell viability assay.

NCI-H1666 = assay: cells; conditions: Homo sapiens;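 note: growth inhibition of the cell line, read out with a cell viability assay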
Description: SANGER: Inhibition of human NCI-H1666 cell growth in a cell viability assay.

OE33 = assay: cells; conditions: Homo sapiens;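 note: growth inhibition of human OE33 cells, measured by a cell viability assay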
Description: SANGER: Inhibition of human OE33 cell growth in a cell viability assay.

H-EMC-SS = assay: cells; conditions: Homo sapiens
Description: SANGER: Inhibition of human H-EMC-SS cell growth in a cell viability assay.

COLO-320-HSR = assay: cells; conditions: Homo sapiens;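 note: growth inhibition of COLO-320-HSR cells, determined with a cell viability assay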
Description: SANGER: Inhibition of human COLO-320-HSR cell growth in a cell viability assay.

CAL-62 = assay: cells; conditions: Homo sapiens;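 note: growth inhibition of CAL-62 cells, read out with a cell viability assay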
Description: SANGER: Inhibition of human CAL-62 cell growth in a cell viability assay.

NCI-H520 = assay: cells; conditions: Homo sapiens;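 note: growth inhibition of NCI-H520 cells, measured by a cell viability assay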
Description: SANGER: Inhibition of human NCI-H520 cell growth in a cell viability assay.

VMRC-RCZ = assay: cells; conditions: Homo sapiens
Description: SANGER: Inhibition of human VMRC-RCZ cell growth in a cell viability assay.

TE-1 = assay: cells; conditions: Homo sapiens;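 note: growth inhibition of the human TE-1 cell line, read out with a cell viability assay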
Description: SANGER: Inhibition of human TE-1 cell growth in a cell viability assay.

CAL-39 = assay: cells; conditions: Homo sapiens;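 note: cell viability assay measuring growth inhibition of CAL-39 cells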
Description: SANGER: Inhibition of human CAL-39 cell growth in a cell viability assay.

MDA-MB-453 = assay: cells; conditions: Homo sapiens
Description: SANGER: Inhibition of human MDA-MB-453 cell growth in a cell viability assay.

MOLT-13 = assay: cells; conditions: Homo sapiens;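 note: IC50 for suppression of MOLT-13 cell growth, read out with a cell viability assay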
Description: SANGER: Inhibition of human MOLT-13 cell growth in a cell viability assay.

KARPAS-45 = assay: cells; conditions: Homo sapiens;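 note: inhibition of cell line growth, read out through a viability assay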
Description: SANGER: Inhibition of human KARPAS-45 cell growth in a cell viability assay.

MPP-89 = assay: cells; conditions: Homo sapiens;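 note: growth inhibition of human MPP-89 cells, read out with a cell viability assay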
Description: SANGER: Inhibition of human MPP-89 cell growth in a cell viability assay.

SNU1 = assay: cells; conditions: Homo sapiens
Description: SANGER: Inhibition of human NCI-SNU-1 cell growth in a cell viability assay.

LCLC-97TM1 = assay: cells; conditions: Homo sapiens
Description: SANGER: Inhibition of human LCLC-97TM1 cell growth in a cell viability assay.

JVM-3 = assay: cells; conditions: Homo sapiens
Description: SANGER: Inhibition of human JVM-3 cell growth in a cell viability assay.

8505C = assay: cells; conditions: Homo sapiens
Description: SANGER: Inhibition of human 8505C cell growth in a cell viability assay.

JAR = assay: cells; conditions: Homo sapiens
Description: SANGER: Inhibition of human JAR cell growth in a cell viability assay.

ATN-1 = assay: cells; conditions: Homo sapiens
Description: SANGER: Inhibition of human ATN-1 cell growth in a cell viability assay.

YAPC = assay: cells; conditions: Homo sapiens
Description: SANGER: Inhibition of human YAPC cell growth in a cell viability assay.

IST-SL1 = assay: cells; conditions: Homo sapiens
Description: SANGER: Inhibition of human IST-SL1 cell growth in a cell viability assay.

DMS-114 = assay: cells; conditions: Homo sapiens
MHH-NB-11 = assay: cells; conditions: Homo sapiens
Description: SANGER: Inhibition of human MHH-NB-11 cell growth in a cell viability assay.

AGS = assay: cells; conditions: Homo sapiens
Description: SANGER: Inhibition of human AGS cell growth in a cell viability assay.

K5 = assay: cells; conditions: Homo sapiens
Description: SANGER: Inhibition of human K5 cell growth in a cell viability assay.

CHP-212 = assay: cells; conditions: Homo sapiens
Description: SANGER: Inhibition of human CHP-212 cell growth in a cell viability assay.

A2780 = assay: cells; conditions: Homo sapiens
Description: SANGER: Inhibition of human A2780 cell growth in a cell viability assay.

NCI-H1581 = assay: cells; conditions: Homo sapiens
Description: SANGER: Inhibition of human NCI-H1581 cell growth in a cell viability assay.

EM-2 = assay: cells; conditions: Homo sapiens
Description: SANGER: Inhibition of human EM-2 cell growth in a cell viability assay.

LB1047-RCC = assay: cells; conditions: Homo sapiens
Description: SANGER: Inhibition of human LB1047-RCC cell growth in a cell viability assay.

A-427 = assay: cells; conditions: Homo sapiens
Description: SANGER: Inhibition of human A427 cell growth in a cell viability assay.

D-392MG = assay: cells; conditions: Homo sapiens
L-363 = assay: cells; conditions: Homo sapiens
Description: SANGER: Inhibition of human L-363 cell growth in a cell viability assay.

NCI-H446 = assay: cells; conditions: Homo sapiens
Description: SANGER: Inhibition of human NCI-H446 cell growth in a cell viability assay.

MEG-01 = assay: cells; conditions: Homo sapiens
Description: SANGER: Inhibition of human MEG-01 cell growth in a cell viability assay.

A253 cell line = assay: cells; conditions: Homo sapiens
Description: SANGER: Inhibition of human A253 cell growth in a cell viability assay.

KU812 cell line = assay: cells; conditions: Homo sapiens
Description: SANGER: Inhibition of human KU812 cell growth in a cell viability assay.

LXF-289 cell line = assay: cells; conditions: Homo sapiens
Description: SANGER: Inhibition of human LXF-289 cell growth in a cell viability assay.

BC1 cell line = assay: SANGER: Inhibition of human BC-1 cell growth in a cell viability assay.
IGR-1 = assay: cells; conditions: Homo sapiens
Description: SANGER: Inhibition of human IGR-1 cell growth in a cell viability assay.

NCI-H810 = assay: cells; conditions: Homo sapiens
Description: SANGER: Inhibition of human NCI-H810 cell growth in a cell viability assay.

786-0 = assay: cells; conditions: Homo sapiens
Description: SANGER: Inhibition of human 786-0 cell growth in a cell viability assay.

O=C(CCCCCCC(=O)Nc1ccccc1)NO [VORINOSTAT]
IC50 (P30-OHK): 0.836 µM
IC50 (TE-8): 2.16 µM
IC50 (D-566MG): 0.839 µM
IC50 (OS-RC-2): 1.87 µM
IC50 (PSN1): 2.29 µM
IC50 (SK-MEL-2): 0.809 µM
IC50 (UACC-893): > 10 µM
IC50 (SBC-1): 0.794 µM
IC50 (LU-139): 0.823 µM
IC50 (GI-1): 2.31 µM
IC50 (SK-N-FI): 4.94 µM
IC50 (NCI-H1693): > 10 µM
IC50 (SW948): 2.18 µM
IC50 (SW780): 4.86 µM
IC50 (MN-60): 1.03 µM
IC50 (COLO-824): 7.73 µM
IC50 (ES7): 1.55 µM
IC50 (NOMO-1): 2.19 µM
IC50 5637: 2.32 µM
IC50 (OC-314): 2.23 µM
IC50 (HT55): 1.65 µM
IC50 (DSH1): 2.16 µM
IC50 (CaR-1): 2.86 µM
IC50 (SNU-449): 2.89 µM
IC50 (LCLC-103H cell line): 2.9 µM
IC50 (HCC1569): 4.88 µM
IC50 (CAL-51): 2.17 µM
IC50 (A3-KAW): 0.401 µM
IC50 (OVCAR-8): 1.54 µM
IC50 (HTC-C3): 2.27 µM
IC50 (TE-6): 4.94 µM
IC50 (GCT): 2.18 µM
IC50 (DMS-273): 2.15 µM
IC50 (Huh-7): 2.31 µM
IC50 (HSC-2): 2.13 µM
IC50 (EW-18): 0.833 µM
IC50 (C8166): 2.21 µM
IC50 (NY): > 10 µM
IC50 (8305C): 2.87 µM
IC50 (NCI-H23): 1.55 µM
IC50 (A673): 2.26 µM
IC50 (HN): 1.89 µM
IC50 (COR-L88): 1.56 µM
IC50 (IA-LM): 1.69 µM
IC50 (NCI-H292): 2.87 µM
IC50 (SK-LU-1): > 10 µM
IC50 (SK-N-AS): 0.988 µM
IC50 (HEL): 0.806 µM
IC50 (OCUB-M): 3.55 µM
IC50 (BB49-HNC): > 10 µM
IC50 (RS4-11): 0.832 µM
IC50 (NCI-H1666): 2.28 µM
IC50 (OE33): 4.88 µM
IC50 (H-EMC-SS): > 10 µM
IC50 (COLO-320-HSR): 1.88 µM
IC50 (CAL-62): 3.55 µM
IC50 (NCI-H520): > 10 µM
IC50 (VMRC-RCZ): > 10 µM
IC50 (TE-1): 0.791 µM
IC50 (CAL-39): 2.24 µM
IC50 (MDA-MB-453): 2.24 µM
IC50 (MOLT-13): 0.739 µM
IC50 (KARPAS-45): 0.174 µM
IC50 (MPP-89): 7.6 µM
IC50 (SNU1): 1.02 µM
IC50 (LCLC-97TM1): 2.15 µM
IC50 (JVM-3): 1.85 µM
IC50 (8505C): 1.02 µM
IC50 (JAR): 2.32 µM
IC50 (ATN-1): 0.74 µM
IC50 (YAPC): > 10 µM
IC50 (IST-SL1): 2.17 µM

CNC(=O)c1ccccc1Sc1ccc2c(/C=C/c3ccccn3)n[nH]c2c1 [AXITINIB]
IC50 (D-566MG): 1.41 µM
IC50 (DMS-114): > 2 µM
IC50 (MHH-NB-11): > 2 µM
IC50 (ES7): 1.11 µM
IC50 (AGS): 1.11 µM
IC50 (K5): 0.421 µM
IC50 (CHP-212): > 2 µM
IC50 (A2780): 1.01 µM
IC50 (NCI-H1581): 1.39 µM
IC50 (EM-2): 0.168 µM
IC50 (LB1047-RCC): > 2 µM
IC50 (A-427): 1.1 µM
IC50 (D-392MG): > 2 µM
IC50 (L-363): > 2 µM
IC50 (NCI-H446): > 2 µM
IC50 (MEG-01): 0.424 µM

CC[C@@H]1C(=O)N(C)c2cnc(Nc3ccc(C(=O)NC4CCN(C)CC4)cc3OC)nc2N1C1CCCC1 [BI-2536]
IC50 (A253 cell line): 0.0882 µM
IC50 (KU812 cell line): 0.12 µM
IC50 (LXF-289 cell line): 0.0177 µM
IC50 (BC1 cell line): 0.226 µM

NC(=O)[C@@H](CCC(F)(F)F)N(Cc1ccc(-c2ncon2)cc1F)S(=O)(=O)c1ccc(Cl)cc1
IC50 (IGR-1): 1.05 µM
IC50 (NCI-H810): 0.426 µM
IC50 (786-0): 0.322 µM

— ChEMBL document CHEMBL1201861, “Genomics of Drug Sensitity in Cancer screening data, Wellcome Trust Sanger Institute”
